Among the data in ChEMBL document CHEMBL1149186, “Triacylglycerols based on 2-(N-tert-butoxycarbonylamino)oleic acid are potent inhibitors of pancreatic lipase” (J Med Chem, 2004) are Alpha 50 (molar fraction) values, retold here.

Experiment [1] deals with T1, Gastric triacylglycerol lipase (Homo sapiens) (UniProt P07098).
T1 sequence (whole entry): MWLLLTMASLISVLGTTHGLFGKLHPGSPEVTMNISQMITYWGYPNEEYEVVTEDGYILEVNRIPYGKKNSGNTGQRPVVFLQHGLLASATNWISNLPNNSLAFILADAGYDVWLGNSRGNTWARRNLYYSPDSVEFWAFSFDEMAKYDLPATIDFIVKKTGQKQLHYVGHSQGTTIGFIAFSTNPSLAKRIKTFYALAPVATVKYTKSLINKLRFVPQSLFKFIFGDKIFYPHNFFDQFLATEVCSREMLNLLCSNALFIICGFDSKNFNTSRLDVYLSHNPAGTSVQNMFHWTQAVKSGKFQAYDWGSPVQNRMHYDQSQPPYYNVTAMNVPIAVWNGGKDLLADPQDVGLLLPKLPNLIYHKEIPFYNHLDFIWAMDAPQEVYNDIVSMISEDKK
Description: Inhibition constant (molar fraction of compound) on human gastric lipase (HGL) at a constant surface pressure of 17 […]. Particulars: Stomach.

Experiment [2] has as its target T1, Gastric triacylglycerol lipase (Homo sapiens). Description: Inhibition constant (molar fraction of compound) on human gastric lipase (HGL) at a constant surface pressure of 27 […]. To be noted: Stomach.
The target in experiment [3] is T2, Pancreatic triacylglycerol lipase (Homo sapiens) (UniProt P16233).
T2 sequence (whole entry): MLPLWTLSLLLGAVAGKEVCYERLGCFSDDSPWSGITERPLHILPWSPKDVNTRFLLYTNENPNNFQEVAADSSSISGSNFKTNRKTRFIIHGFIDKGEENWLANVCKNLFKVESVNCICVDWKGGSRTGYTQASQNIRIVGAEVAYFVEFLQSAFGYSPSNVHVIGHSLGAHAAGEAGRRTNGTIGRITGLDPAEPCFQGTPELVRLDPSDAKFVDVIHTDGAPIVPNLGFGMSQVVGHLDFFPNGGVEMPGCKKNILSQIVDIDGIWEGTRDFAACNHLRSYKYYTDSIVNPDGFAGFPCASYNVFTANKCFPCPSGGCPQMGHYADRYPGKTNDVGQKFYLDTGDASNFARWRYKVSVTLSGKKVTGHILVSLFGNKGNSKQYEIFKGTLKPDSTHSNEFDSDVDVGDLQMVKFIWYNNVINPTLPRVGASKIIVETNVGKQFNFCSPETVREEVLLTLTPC
Description: Inhibition constant (molar fraction of compound) on human pancreatic lipase (HPL) at a constant surface pressure of 14 […].

Experiment [4] has as its target T2, Pancreatic triacylglycerol lipase (Homo sapiens). Description: Inhibition constant (molar fraction of compound) on human pancreatic lipase (HPL) at a constant surface pressure of 25 […].

With `CCCCCCCC/C=C\CCCCCC[C@H](NC(=O)OC(C)(C)C)C(=O)OCC(COC(=O)[C@H](CCCCCC/C=C\CCCCCCCC)NC(=O)OC(C)(C)C)OC(=O)[C@H](CCCCCC/C=C\CCCCCCCC)NC(=O)OC(C)(C)C`, the Alpha 50 (molar fraction) in experiment [1] worked out at 0.15; in experiment [2], 0.057; in experiment [3], 0.009; in experiment [4], 0.003.
With `CCCCCCCC/C=C\CCCCCC[C@H](NC(=O)OC(C)(C)C)C(=O)OCC(C)(COC(=O)[C@H](CCCCCC/C=C\CCCCCCCC)NC(=O)OC(C)(C)C)OC(=O)[C@H](CCCCCC/C=C\CCCCCCCC)NC(=O)OC(C)(C)C`, the Alpha 50 (molar fraction) in experiment [2] is 0.104; in experiment [4], 0.002.
